pIC50: −log10 of the molar value. Blank lines part the entries; values can stand above or below the molecule they belong to.
System: HSSY-II complex spheroid growth, percent test/control
Experiment: Anticancer human tumor HSSY-II cell line growth inhibition [Asc];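 further: spheroids exposed to drug for 7 days before reading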
Conditions: for pIC50: curve of first compound; for viability, T/C: stronger effect = lower value
Outline: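 Complex spheroids combining tumor cells with HUVEC endothelial cells and human MSCs, at 37 degrees C, 5% CO2; agents tested alone or combined, half-log dilutions from at or near clinical Cmax, or 10 microM if Cmax unknown.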

[1] = second compound 0.1 µM, first compound 0.00316 µM
[2] = second compound 0.1 µM, first compound 0.01 µM
[3] = second compound 0.1 µM, first compound 0.0316 µM
[4] = second compound 0.1 µM, first compound 0.1 µM
[5] = second compound 0.1 µM, first compound 0.316 µM
[6] = second compound 0.1 µM, first compound 1 µM
[7] = second compound 0.316 µM, first compound 0.00316 µM
[8] = second compound 0.316 µM, first compound 0.01 µM
[9] = second compound 0.316 µM, first compound 0.0316 µM
[10] = second compound 0.316 µM, first compound 0.1 µM
[11] = second compound 0.316 µM, first compound 0.316 µM
[12] = second compound 0.316 µM, first compound 1 µM
[13] = second compound 1 µM, first compound 0.00316 µM
[14] = second compound 1 µM, first compound 0.01 µM
[15] = second compound 1 µM, first compound 0.0316 µM
[16] = second compound 1 µM, first compound 0.1 µM
[17] = second compound 1 µM, first compound 0.316 µM
[18] = second compound 1 µM, first compound 1 µM
[19] = second compound 3.16 µM, first compound 0.00316 µM
[20] = second compound 3.16 µM, first compound 0.01 µM
[21] = second compound 3.16 µM, first compound 0.0316 µM
[22] = second compound 3.16 µM, first compound 0.1 µM
[23] = second compound 3.16 µM, first compound 0.316 µM
[24] = second compound 3.16 µM, first compound 1 µM
[25] = second compound 10 µM, first compound 0.00316 µM
[26] = second compound 10 µM, first compound 0.01 µM
[27] = second compound 10 µM, first compound 0.0316 µM
[28] = second compound 10 µM, first compound 0.1 µM
[29] = second compound 10 µM, first compound 0.316 µM
[30] = second compound 10 µM, first compound 1 µM

pIC50 (second compound 0.1 µM): 6.59
pIC50 (second compound 0.316 µM): 6.84
pIC50 (second compound 1 µM): 6.87
pIC50 (second compound 3.16 µM): 6.95
pIC50 (second compound 10 µM): 7.16
Structure (SMILES): CCN1CCN(Cc2ccc(Nc3ncc(F)c(-c4cc(F)c5nc(C)n(C(C)C)c5c4)n3)nc2)CC1 + Cc1c(S(C)(=O)=O)c(-c2cc(F)cc(N3CCN(c4ccc(NS(=O)(=O)c5ccc(NC(CCN6CCC(C(=O)OCCCP(=O)(O)O)CC6)CSc6ccccc6)c(S(=O)(=O)C(F)(F)F)c5)cc4)CC3)c2)c(-c2ccc(Cl)cc2)n1C(C)C
viability, T/C [1]: 90.8%
viability, T/C [2]: 105%
viability, T/C [3]: 71.5%
viability, T/C [4]: 68.5%
viability, T/C [5]: 47.5%
viability, T/C [6]: 26.7%
viability, T/C [7]: 92.4%
viability, T/C [8]: 88.2%
viability, T/C [9]: 75.6%
viability, T/C [10]: 52.8%
viability, T/C [11]: 40%
viability, T/C [12]: 20.7%
viability, T/C [13]: 94.7%
viability, T/C [14]: 83.1%
viability, T/C [15]: 70%
viability, T/C [16]: 57.6%
viability, T/C [17]: 34.8%
viability, T/C [18]: 24.9%
viability, T/C [19]: 80.9%
viability, T/C [20]: 91.8%
viability, T/C [21]: 74.2%
viability, T/C [22]: 49%
viability, T/C [23]: 38.2%
viability, T/C [24]: 23.1%
viability, T/C [25]: 83.9%
viability, T/C [26]: 81.3%
viability, T/C [27]: 60.7%
viability, T/C [28]: 41.6%
viability, T/C [29]: 40.3%
viability, T/C [30]: 24.9%

pIC50 (second compound 0.1 µM): 7.42
pIC50 (second compound 0.316 µM): 7.50
pIC50 (second compound 1 µM): 7.60
pIC50 (second compound 3.16 µM): 7.58
pIC50 (second compound 10 µM): 7.58
Structure (SMILES): COc1c(OCCCN2CCOCC2)ccc2c3n(c(=NC(=O)c4cnc(N)nc4)nc12)CCN3 + Cc1c(S(C)(=O)=O)c(-c2cc(F)cc(N3CCN(c4ccc(NS(=O)(=O)c5ccc(NC(CCN6CCC(C(=O)OCCCP(=O)(O)O)CC6)CSc6ccccc6)c(S(=O)(=O)C(F)(F)F)c5)cc4)CC3)c2)c(-c2ccc(Cl)cc2)n1C(C)C
viability, T/C [1]: 86.7%
viability, T/C [2]: 72.9%
viability, T/C [3]: 50.5%
viability, T/C [4]: 35.9%
viability, T/C [5]: 20.9%
viability, T/C [6]: 10.2%
viability, T/C [7]: 86.4%
viability, T/C [8]: 74.1%
viability, T/C [9]: 48.5%
viability, T/C [10]: 28.6%
viability, T/C [11]: 19.6%
viability, T/C [12]: 8.57%
viability, T/C [13]: 90.1%
viability, T/C [14]: 67%
viability, T/C [15]: 45%
viability, T/C [16]: 30.4%
viability, T/C [17]: 17.7%
viability, T/C [18]: 7.86%
viability, T/C [19]: 82.1%
viability, T/C [20]: 67.9%
viability, T/C [21]: 42.4%
viability, T/C [22]: 34.5%
viability, T/C [23]: 16.2%
viability, T/C [24]: 6.36%
viability, T/C [25]: 77.6%
viability, T/C [26]: 68.9%
viability, T/C [27]: 42.9%
viability, T/C [28]: 30.7%
viability, T/C [29]: 16.4%
viability, T/C [30]: 3.47%

pIC50 (second compound 0.1 µM): 7.75
pIC50 (second compound 0.316 µM): 7.74
pIC50 (second compound 1 µM): 7.87
pIC50 (second compound 3.16 µM): 7.82
pIC50 (second compound 10 µM): 7.88
Structure (SMILES): NC(=O)C(=Cn1cnc(-c2cc(C(F)(F)F)cc(C(F)(F)F)c2)n1)c1cncnc1 + Cc1c(S(C)(=O)=O)c(-c2cc(F)cc(N3CCN(c4ccc(NS(=O)(=O)c5ccc(NC(CCN6CCC(C(=O)OCCCP(=O)(O)O)CC6)CSc6ccccc6)c(S(=O)(=O)C(F)(F)F)c5)cc4)CC3)c2)c(-c2ccc(Cl)cc2)n1C(C)C
viability, T/C (second compound 0.1 µM, first compound 0.000949 µM): 87.7%
viability, T/C (second compound 0.1 µM, first compound 0.003 µM): 86%
viability, T/C (second compound 0.1 µM, first compound 0.00949 µM): 65.4%
viability, T/C (second compound 0.1 µM, first compound 0.03 µM): 37.4%
viability, T/C (second compound 0.1 µM, first compound 0.0949 µM): 9.64%
viability, T/C (second compound 0.1 µM, first compound 0.3 µM): 0.51%
viability, T/C (second compound 0.316 µM, first compound 0.000949 µM): 99.8%
viability, T/C (second compound 0.316 µM, first compound 0.003 µM): 83.5%
viability, T/C (second compound 0.316 µM, first compound 0.00949 µM): 71.9%
viability, T/C (second compound 0.316 µM, first compound 0.03 µM): 36.1%
viability, T/C (second compound 0.316 µM, first compound 0.0949 µM): 6%
viability, T/C (second compound 0.316 µM, first compound 0.3 µM): 0.34%
viability, T/C (second compound 1 µM, first compound 0.000949 µM): 96.1%
viability, T/C (second compound 1 µM, first compound 0.003 µM): 80%
viability, T/C (second compound 1 µM, first compound 0.00949 µM): 61.3%
viability, T/C (second compound 1 µM, first compound 0.03 µM): 30%
viability, T/C (second compound 1 µM, first compound 0.0949 µM): 5.9%
viability, T/C (second compound 1 µM, first compound 0.3 µM): 0.23%
viability, T/C (second compound 3.16 µM, first compound 0.000949 µM): 91.1%
viability, T/C (second compound 3.16 µM, first compound 0.003 µM): 84.3%
viability, T/C (second compound 3.16 µM, first compound 0.00949 µM): 68.1%
viability, T/C (second compound 3.16 µM, first compound 0.03 µM): 24%
viability, T/C (second compound 3.16 µM, first compound 0.0949 µM): 2.17%
viability, T/C (second compound 3.16 µM, first compound 0.3 µM): 0.24%
viability, T/C (second compound 10 µM, first compound 0.000949 µM): 84.9%
viability, T/C (second compound 10 µM, first compound 0.003 µM): 89.6%
viability, T/C (second compound 10 µM, first compound 0.00949 µM): 56.5%
viability, T/C (second compound 10 µM, first compound 0.03 µM): 26.9%
viability, T/C (second compound 10 µM, first compound 0.0949 µM): 1.88%
viability, T/C (second compound 10 µM, first compound 0.3 µM): 0.28%

pIC50 (second compound 0.1 µM): < 7.00
pIC50 (second compound 0.316 µM): < 7.00
pIC50 (second compound 1 µM): < 7.00
pIC50 (second compound 3.16 µM): < 7.00
pIC50 (second compound 10 µM): < 7.00
Structure (SMILES): NC1CCC(NC2CC2c2ccccc2)CC1 (stereo not given) + Cc1c(S(C)(=O)=O)c(-c2cc(F)cc(N3CCN(c4ccc(NS(=O)(=O)c5ccc(NC(CCN6CCC(C(=O)OCCCP(=O)(O)O)CC6)CSc6ccccc6)c(S(=O)(=O)C(F)(F)F)c5)cc4)CC3)c2)c(-c2ccc(Cl)cc2)n1C(C)C
viability, T/C (second compound 0.1 µM, first compound 0.000316 µM): 58.9%
viability, T/C (second compound 0.1 µM, first compound 0.001 µM): 69.2%
viability, T/C [1]: 64%
viability, T/C [2]: 56.5%
viability, T/C [3]: 60.3%
viability, T/C [4]: 66.5%
viability, T/C (second compound 0.316 µM, first compound 0.000316 µM): 77%
viability, T/C (second compound 0.316 µM, first compound 0.001 µM): 67.3%
viability, T/C [7]: 58.9%
viability, T/C [8]: 60.6%
viability, T/C [9]: 60%
viability, T/C [10]: 64.5%
viability, T/C (second compound 1 µM, first compound 0.000316 µM): 70.3%
viability, T/C (second compound 1 µM, first compound 0.001 µM): 60.8%
viability, T/C [13]: 57.5%
viability, T/C [14]: 59%
viability, T/C [15]: 60.6%
viability, T/C [16]: 62.8%
viability, T/C (second compound 3.16 µM, first compound 0.000316 µM): 73.1%
viability, T/C (second compound 3.16 µM, first compound 0.001 µM): 62.1%
viability, T/C [19]: 60.8%
viability, T/C [20]: 61.1%
viability, T/C [21]: 59.9%
viability, T/C [22]: 61.4%
viability, T/C (second compound 10 µM, first compound 0.000316 µM): 66%
viability, T/C (second compound 10 µM, first compound 0.001 µM): 66.5%
viability, T/C [25]: 70.2%
viability, T/C [26]: 57.9%
viability, T/C [27]: 62.3%
viability, T/C [28]: 66.6%

pIC50 (second compound 0.1 µM): 6.25
pIC50 (second compound 0.316 µM): 6.24
pIC50 (second compound 1 µM): 6.24
pIC50 (second compound 3.16 µM): 6.29
pIC50 (second compound 10 µM): 6.25
Structure (SMILES): O=C(c1ccc(F)c(F)c1Nc1ccc(I)cc1F)N1CC(O)([C@@H]2CCCCN2)C1 + Cc1c(S(C)(=O)=O)c(-c2cc(F)cc(N3CCN(c4ccc(NS(=O)(=O)c5ccc(NC(CCN6CCC(C(=O)OCCCP(=O)(O)O)CC6)CSc6ccccc6)c(S(=O)(=O)C(F)(F)F)c5)cc4)CC3)c2)c(-c2ccc(Cl)cc2)n1C(C)C
viability, T/C [1]: 97.4%
viability, T/C [2]: 111%
viability, T/C [3]: 106%
viability, T/C [4]: 112%
viability, T/C [5]: 77.6%
viability, T/C [6]: 22.9%
viability, T/C [7]: 110%
viability, T/C [8]: 107%
viability, T/C [9]: 99.5%
viability, T/C [10]: 117%
viability, T/C [11]: 79.3%
viability, T/C [12]: 22.9%
viability, T/C [13]: 115%
viability, T/C [14]: 110%
viability, T/C [15]: 114%
viability, T/C [16]: 110%
viability, T/C [17]: 81.8%
viability, T/C [18]: 20.8%
viability, T/C [19]: 107%
viability, T/C [20]: 101%
viability, T/C [21]: 105%
viability, T/C [22]: 98.7%
viability, T/C [23]: 71.8%
viability, T/C [24]: 19.6%
viability, T/C [25]: 96.2%
viability, T/C [26]: 96.4%
viability, T/C [27]: 104%
viability, T/C [28]: 104%
viability, T/C [29]: 81.7%
viability, T/C [30]: 18.1%

Reference: PubChem BioAssay AID1963444 (Molecular Pharmacology Branch, DTP, NCI, 2024)
